# Measurements reported in patent US10968178B2, “IP6K inhibitors” (TAKEDA PHARMACEUTICAL COMPANY LIMITED, priority 2017, dated 2021).
# Legend:
# Format in all cases: biochemical
# [1] = target: T1, human IP6K3 (Homo sapiens, UniProt Q96PC2); assay: IP6K enzyme inhibitory assay (ADP-Glo Kinase Assay), human IP6K3; settings: compound concentration 0.1 μM; read-out: ADP-Glo method inhibitory rate (%) human IP6K3
# T1 construct: human IP6K3 (1-410) gene; made in house; host or cells: BL21 (DE3) Escherichia coli
# T1 sequence (Q96PC2 1-410): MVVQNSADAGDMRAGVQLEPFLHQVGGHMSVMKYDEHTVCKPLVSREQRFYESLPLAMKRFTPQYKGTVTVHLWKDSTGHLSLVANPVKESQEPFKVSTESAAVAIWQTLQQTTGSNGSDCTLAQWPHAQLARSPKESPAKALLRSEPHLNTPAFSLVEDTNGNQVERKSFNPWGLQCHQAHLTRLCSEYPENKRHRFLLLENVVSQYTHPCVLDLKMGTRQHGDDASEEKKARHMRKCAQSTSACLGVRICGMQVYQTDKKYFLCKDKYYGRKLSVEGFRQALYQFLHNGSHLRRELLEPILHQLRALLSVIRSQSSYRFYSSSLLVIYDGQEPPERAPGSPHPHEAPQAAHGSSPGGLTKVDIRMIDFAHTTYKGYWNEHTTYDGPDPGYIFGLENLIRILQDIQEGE
# Protocol: (§1) IP6K Enzyme Inhibitory Assay
# (§2) Human IP6K3 enzyme was prepared by transducing human IP6K3 (1-410) gene into BL21 (DE3) Escherichia coli and purifying by Ni-NTA (nickel-nitrilotriacetic acid) affinity column. […] The enzymes were used after preservation at −70° C. The IP6K enzyme inhibitory activity of the test compound was measured by the following experiment method and using ADP-Glo™ Kinase Assay (manufactured by Promega). A test compound diluted with an assay buffer (20 mM HEPES (pH 7.5), 6 mM MgCl2, 0.01% Tween-20, 1 mM DTT) was first added by 2 μL to a 384 well plate. […] The IP6K enzyme solution diluted with the assay buffer was added by 2 μL to start the enzyme reaction. Incubation was performed at room temperature for a given time (120 min for rat IP6K3 alone, 60 min for others). After incubation at room temperature, ADP-Glo solution prepared according to the protocol of Promega was added by 3 μL to the 384 well plate and reacted at room temperature for 30 min. Thereafter, Kinase-Detection solution was added by 6 μL to the 384 well plate and reacted at room temperature for 60 min. After the reaction, the luminescence intensity was measured by a plate reader Envision (manufactured by PerkinElmer).
# [2] = target: T2, human IP6K1 (Homo sapiens, UniProt Q92551); assay: IP6K enzyme inhibitory assay (ADP-Glo Kinase Assay), human IP6K1; settings: compound concentration 0.1 μM; read-out: ADP-Glo method inhibitory rate (%) human IP6K1
# T2 construct: human IP6K1 (1-441) gene; GST; made in house; host or cells: Sf-9 insect cells
# Protocol: as §1, §2
# [3] = target: T3, human IP6K2 (Homo sapiens, UniProt Q9UHH9); assay: IP6K enzyme inhibitory assay (ADP-Glo Kinase Assay), human IP6K2; settings: compound concentration 0.1 μM; read-out: ADP-Glo method inhibitory rate (%) human IP6K2
# T3 construct: human IP6K2 (1-426) gene; GST; made in house; host or cells: Sf-9 insect cells
# T3 sequence (Q9UHH9 1-426): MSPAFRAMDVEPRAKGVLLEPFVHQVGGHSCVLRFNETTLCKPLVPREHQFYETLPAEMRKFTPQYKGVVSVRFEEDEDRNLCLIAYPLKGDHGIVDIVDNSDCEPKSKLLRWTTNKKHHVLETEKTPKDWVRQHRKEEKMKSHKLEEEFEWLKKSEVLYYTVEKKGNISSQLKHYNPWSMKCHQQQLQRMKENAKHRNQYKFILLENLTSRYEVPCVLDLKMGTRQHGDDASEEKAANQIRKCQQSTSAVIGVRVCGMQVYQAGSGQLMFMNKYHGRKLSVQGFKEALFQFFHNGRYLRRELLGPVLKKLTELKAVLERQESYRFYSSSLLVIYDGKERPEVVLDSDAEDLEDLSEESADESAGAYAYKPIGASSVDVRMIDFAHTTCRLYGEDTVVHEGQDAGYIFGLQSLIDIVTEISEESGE
# Protocol: as §1, §2
# T2 sequence (Q92551 whole entry): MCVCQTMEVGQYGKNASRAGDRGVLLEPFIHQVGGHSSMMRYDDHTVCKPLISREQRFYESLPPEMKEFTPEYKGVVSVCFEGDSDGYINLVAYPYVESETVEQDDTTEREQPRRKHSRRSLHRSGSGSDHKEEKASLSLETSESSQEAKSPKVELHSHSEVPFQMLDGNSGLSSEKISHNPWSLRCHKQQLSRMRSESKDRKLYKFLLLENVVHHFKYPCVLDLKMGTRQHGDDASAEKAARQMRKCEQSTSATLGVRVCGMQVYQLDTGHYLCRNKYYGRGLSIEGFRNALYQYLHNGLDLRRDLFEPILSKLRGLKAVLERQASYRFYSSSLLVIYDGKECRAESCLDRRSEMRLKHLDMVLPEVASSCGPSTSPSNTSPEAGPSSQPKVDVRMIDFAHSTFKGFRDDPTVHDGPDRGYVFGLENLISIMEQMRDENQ
Structure (SMILES),inhibition at 0.1 µM [1],inhibition at 0.1 µM [2],inhibition at 0.1 µM [3]
"Cc1ccc(O[C@H]2CC[C@@]3(CC2)C(=O)Nc2ccc(C(=O)O)cc23)cc1C [Example 46, (1r,4r)-4-(3,4-dimethylphenoxy)-2′-oxo-1′,2′-dihydrospiro[cyclohexane-1,3′-indole]-5′-carboxylic acid]",99%,97%,98%
"O=C(O)c1ccc2c(c1)[C@]1(CC[C@@H](Oc3ccc(C(F)(F)F)cc3)CC1)C(=O)N2 [Example 10, (1r,4r)-2-oxo-4-(4-(trifluoromethyl)phenoxy)-1′,2′-dihydrospiro[cyclohexane-1,3′-indole]-5′-carboxylic acid]",102%,98%,100%
"O=C(O)c1ccc2c(c1)[C@]1(CC[C@@H](Oc3ccc(F)c(F)c3)CC1)C(=O)N2 [Example 55, (1r,4r)-4-(3,4-difluorophenoxy)-2′-oxo-1′,2′-dihydrospiro[cyclohexane-1,3′-indole]-5′-carboxylic acid]",99%,96%,95%
"O=C(O)c1ccc2c(c1)[C@]1(CC[C@@H](Oc3cccc(F)c3F)CC1)C(=O)N2 [Example 59, (1r,4r)-4-(2,3-difluorophenoxy)-2′-oxo-1′,2′-dihydrospiro[cyclohexane-1,3′-indole]-5′-carboxylic acid]",97%,87%,86%
"Cc1ccc(O[C@H]2CC[C@@]3(CC2)C(=O)Nc2ccc(C(=O)O)cc23)cc1 [Example 43, (1r,4r)-4-(4-methylphenoxy)-2′-oxo-1′,2′-dihydrospiro[cyclohexane-1,3′-indole]-5′-carboxylic acid]",100%,98%,99%
"O=C(O)c1ccc2c(c1)[C@]1(CC[C@@H](Oc3ncccc3Cl)CC1)C(=O)N2 [Example 24, (1r,4r)-4-((3-chloropyridin-2-yl)oxy)-2′-oxo-1′,2′-dihydrospiro[cyclohexane-1,3′-indole]-5′-carboxylic acid]",92%,86%,92%
"N#Cc1ccc(O[C@H]2CC[C@@]3(CC2)C(=O)Nc2ccc(C(=O)O)cc23)cc1F [Example 61, (1r,4r)-4-(4-cyano-3-fluorophenoxy)-2′-oxo-1′,2′-dihydrospiro[cyclohexane-1,3′-indole]-5′-carboxylic acid]",100%,100%,95%
"Cc1cc(O[C@H]2CC[C@@]3(CC2)C(=O)Nc2ccc(C(=O)O)cc23)nc(C)n1 [Example 40, (1r,4r)-4-((2,6-dimethylpyrimidin-4-yl)oxy)-2′-oxo-1′,2′-dihydrospiro[cyclohexane-1,3′-indole]-5′-carboxylic acid]",49%,14%,18%
"O=C(O)c1ccc2c(c1)[C@]1(CC[C@@H](Oc3ccc(Cl)cc3F)CC1)C(=O)N2 [Example 66, (1r,4r)-4-(4-chloro-2-fluorophenoxy)-2′-oxo-1′,2′-dihydrospiro[cyclohexane-1,3′-indole]-5′-carboxylic acid]",96%,99%,100%
"O=C(O)c1ccc2c(c1)[C@]1(CC[C@@H](Oc3cccc(C(F)(F)F)c3F)CC1)C(=O)N2 [Example 77, (1r,4r)-4-(2-fluoro-3-(trifluoromethyl)phenoxy)-2′-oxo-1′,2′-dihydrospiro[cyclohexane-1,3′-indole]-5′-carboxylic acid]",98%,94%,99%
"O=C(O)c1ccc2c(c1)[C@]1(CC[C@@H](Oc3ccc(Cl)cc3Cl)CC1)C(=O)N2 [Example 1, (1r,4r)-4-(2,4-dichlorophenoxy)-2′-oxo-1′,2′-dihydrospiro[cyclohexane-1,3′-indole]-5′-carboxylic acid]",99%,100%,100%
"COc1ccc(O[C@H]2CC[C@@]3(CC2)C(=O)Nc2ccc(C(=O)O)cc23)c(C#N)c1 [Example 70, (1r,4r)-4-(2-cyano-4-methoxyphenoxy)-2′-oxo-1′,2′-dihydrospiro[cyclohexane-1,3′-indole]-5′-carboxylic acid]",99%,99%,99%
"O=C(O)c1ccc2c(c1)[C@]1(CC[C@@H](Oc3ncc(Cl)cc3C(F)(F)F)CC1)C(=O)N2 [Example 28, (1r,4r)-4-((5-chloro-3-(trifluoromethyl)pyridin-2-yl)oxy)-2′-oxo-1′,2′-dihydrospiro[cyclohexane-1,3′-indole]-5′-carboxylic acid]",96%,95%,98%
"O=C(O)c1ccc2c(c1)[C@]1(CC[C@@H](Oc3cc(F)ccc3Cl)CC1)C(=O)N2 [Example 65, (1r,4r)-4-(2-chloro-5-fluorophenoxy)-2′-oxo-1′,2′-dihydrospiro[cyclohexane-1,3′-indole]-5′-carboxylic acid]",97%,93%,95%

# Now from value to compound:
inhibition at 0.1 µM [1],inhibition at 0.1 µM [2],inhibition at 0.1 µM [3],Structure (SMILES)
97%,105%,94%,"O=C(O)c1ccc2c(n1)[C@]1(CC[C@@H](Oc3ccc(Cl)cc3Cl)CC1)C(=O)N2 [Example 102, (1r,4r)-4-(2,4-dichlorophenoxy)-2′-oxo-1′,2′-dihydrospiro[cyclohexane-1,3′-pyrrolo[3,2-b]pyridine]-5′-carboxylic acid]"
96%,99%,101%,"O=C(O)c1ccc2c(c1)[C@]1(CC[C@@H](Oc3ccc(Cl)cc3)CC1)C(=O)N2 [Example 114, (1r,4r)-4-(4-chlorophenoxy)-2′-oxo-1′,2′-dihydrospiro[cyclohexane-1,3′-indole]-5′-carboxylic acid]"
98%,97%,92%,"O=C(O)c1ccc2c(n1)[C@]1(CC[C@@H](Oc3ccc(Cl)cc3)CC1)C(=O)N2 [Example 92, (1r,4r)-4-(4-chlorophenoxy)-2′-oxo-1′,2′-dihydrospiro[cyclohexane-1,3′-pyrrolo[3,2-b]pyridine]-5′-carboxylic acid]"
96%,84%,96%,"N#Cc1cc(Cl)cnc1O[C@H]1CC[C@]2(CC1)C(=O)Nc1ccc(C(=O)O)nc12 [Example 110, (1s,4s)-4-((5-chloro-3-cyanopyridin-2-yl)oxy)-2′-oxo-1′,2′-dihydrospiro[cyclohexane-1,3′-pyrrolo[3,2-b]pyridine]-5′-carboxylic acid]"
98%,91%,99%,"O=C(O)c1ccc2c(n1)[C@]1(CC[C@H](Oc3ncc(C4CC4)cc3Cl)CC1)C(=O)N2 [Example 111, (1s,4s)-4-((3-chloro-5-cyclopropylpyridin-2-yl)oxy)-2′-oxo-1′,2′-dihydrospiro[cyclohexane-1,3′-pyrrolo[3,2-b]pyridine]-5′-carboxylic acid]"
98%,95%,99%,"Cc1ccc(C#N)c(O[C@H]2CC[C@]3(CC2)C(=O)Nc2ccc(C(=O)O)cc23)n1 [Example 104, (1s,4s)-4-((3-cyano-6-methylpyridin-2-yl)oxy)-2′-oxo-1′,2′-dihydrospiro[cyclohexane-1,3′-indole]-5′-carboxylic acid]"
